Reference: publication PMC9769921, “Characteristics of the GlnH and GlnX Signal Transduction Proteins Controlling PknG-Mediated Phosphorylation of OdhI and 2-Oxoglutarate Dehydrogenase Activity in Corynebacterium glutamicum” (Microbiology Spectrum, 2022)
Several values for one entry are separate records, joined by “and”; a condition that tells them apart may be missing. Equal values may be shown once.

How the values were obtained:
His10-GlnHΔSP (GlnH) = His10-GlnHΔSP (GlnH) (Corynebacterium glutamicum, UniProt Q8NM30); test: Isothermal titration calorimetry with His10-GlnHΔSP; format: binding; details: for binding to His10-GlnHΔSP / mean observed enthalpy change: ITC, 40 mM HEPES pH 7, 100 mM KCl; for binding to His10-GlnHΔSP: 10 mM MgCl2; for mean observed enthalpy change: 10 mM MgCl2, 25°C
Excerpt: Based on the similarity to the glutamine-binding protein GlnH of E. coli, which is part of the ABC transporter GlnHPQ ([28], [29]), the protein encoded by cg3045 in the C. glutamicum genome was initially annotated as a putative glutamine binding protein ([20]). […] To characterize the ligand binding properties of GlnH, a soluble protein version lacking the N-terminal signal peptide and the lipobox motif was overproduced in E. coli BL21(DE3) using the expression plasmid pET-TEV-glnHΔSP and purified by Ni^2+-chelate affinity chromatography. The His-tagged protein was used for interaction studies with different potential ligands using isothermal titration calorimetry (ITC). Based on the annotation, L-glutamine was first tested as a ligand, but no binding to His10-GlnHΔSP was observed under the conditions used (40 mM HEPES, pH 7, 100 mM KCl, 10 mM MgCl2). In contrast, L-aspartate and L-glutamate served as ligands for His10-GlnHΔSP, although with moderate affinity. […] In both cases, binding was exothermic with mean observed enthalpy changes of −18.5 ± 4.3 kJ/mol for L-aspartate and −17.5 ± 5.0 kJ/mol for L-glutamate. […] In Fig. 6, representative ITC experiments are shown for the five ligands tested.
Purified His10-GlnHΔSP was dialyzed overnight against a 500-fold excess of dialysis buffer (40 mM HEPES, 100 mM KCl, 10 mM MgCl2, pH 7.0). Stock solutions of the potential ligands L-aspartic acid, L-glutamic acid, L-asparagine, L-glutamine, and 2-oxoglutarate were prepared in dialysis buffer, and the pH was adjusted to pH 7.0 using KOH. ITC measurements were performed with a MicroCal PEAQ-ITC instrument (Malvern Panalytical, Malvern, Great Britain) operated at 25°C. Protein concentrations between 30 μM and 75 μM were used together with ligand concentrations of 7.5 mM to 50 mM. Prior to being filled with 300 μL protein solution, the measuring cell was rinsed with dialysis buffer, while the syringe was filled with 75 μL ligand solution. An ITC run was started with an initial injection of 0.4 μL followed by 12 injections of 3 μL each. In addition, control experiments with ligand solution titrated into the dialysis buffer were performed. The data were analyzed using MicroCal ITC analysis software (Malvern Panalytical), and a fixed 1:1 binding stoichiometry was assumed to determine the binding affinity.

C. glutamicum = system: C. glutamicum; set-up: method as in PMID 15870446; details: cited from earlier work
GlnH of C. glutamicum [1] = target: GlnH of C. glutamicum; set-up: method as in PMID 30065086; details: change in intrinsic tryptophan fluorescence; cited from earlier work
His10-GlnHcore (GlnH) = His10-GlnHcore (GlnH) (Corynebacterium glutamicum, UniProt Q8NM30); test: Intrinsic tryptophan fluorescence ligand binding, parental His10-GlnHcore
M. tuberculosis GlnH = target: M. tuberculosis GlnH; set-up: method as in PMID 30065086; details: cited from earlier work
GlnH of C. glutamicum [2] = system: GlnH of C. glutamicum; set-up: method as in PMID 30065086; details: cited from earlier work
[3] = target: T1, OdhA subunit of the 2-oxoglutarate dehydrogenase complex (ODH) (Corynebacterium glutamicum (endogenous in C. glutamicum ΔodhI)) (UniProt Q8NRC3)
T1 sequence: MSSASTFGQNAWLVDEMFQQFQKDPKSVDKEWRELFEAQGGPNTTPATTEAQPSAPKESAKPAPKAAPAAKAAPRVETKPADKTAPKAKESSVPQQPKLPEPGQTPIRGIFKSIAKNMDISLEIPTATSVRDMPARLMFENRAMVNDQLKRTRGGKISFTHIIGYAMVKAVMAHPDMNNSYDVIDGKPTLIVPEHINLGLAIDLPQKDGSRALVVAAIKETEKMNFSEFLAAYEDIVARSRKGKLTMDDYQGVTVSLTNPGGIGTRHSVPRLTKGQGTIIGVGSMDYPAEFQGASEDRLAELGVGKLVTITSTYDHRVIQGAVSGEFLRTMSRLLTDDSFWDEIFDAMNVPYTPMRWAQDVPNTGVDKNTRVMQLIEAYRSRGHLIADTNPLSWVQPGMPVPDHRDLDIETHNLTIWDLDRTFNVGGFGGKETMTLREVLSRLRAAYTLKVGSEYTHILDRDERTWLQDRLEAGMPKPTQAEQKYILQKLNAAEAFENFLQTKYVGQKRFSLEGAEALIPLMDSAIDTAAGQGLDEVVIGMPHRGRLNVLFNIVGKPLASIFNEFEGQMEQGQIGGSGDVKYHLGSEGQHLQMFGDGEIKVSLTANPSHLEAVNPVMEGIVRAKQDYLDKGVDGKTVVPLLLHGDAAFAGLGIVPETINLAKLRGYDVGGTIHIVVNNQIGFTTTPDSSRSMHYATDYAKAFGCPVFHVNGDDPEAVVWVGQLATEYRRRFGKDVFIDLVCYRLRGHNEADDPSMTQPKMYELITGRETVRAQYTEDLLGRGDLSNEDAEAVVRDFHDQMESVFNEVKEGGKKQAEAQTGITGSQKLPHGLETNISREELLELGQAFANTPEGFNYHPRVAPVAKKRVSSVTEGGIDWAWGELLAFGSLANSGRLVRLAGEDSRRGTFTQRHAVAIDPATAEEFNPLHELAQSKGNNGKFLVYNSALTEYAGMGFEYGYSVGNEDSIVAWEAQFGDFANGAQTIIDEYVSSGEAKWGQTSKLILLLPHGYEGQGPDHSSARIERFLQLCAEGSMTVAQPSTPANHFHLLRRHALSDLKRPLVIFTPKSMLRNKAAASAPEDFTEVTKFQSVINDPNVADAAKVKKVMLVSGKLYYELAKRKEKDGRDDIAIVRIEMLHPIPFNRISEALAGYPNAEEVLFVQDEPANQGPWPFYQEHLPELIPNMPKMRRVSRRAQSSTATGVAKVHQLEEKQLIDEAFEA

[4] = target: 2-oxoglutarate dehydrogenase complex (ODH) (Corynebacterium glutamicum, UniProt Q8NRC3); test: ODH activity of cell-free extracts of C. glutamicum ΔodhI with added OdhI variants (photometric, NADH formation); details: 100% = 135 ± 12 nmol min^−1 (mg protein)^−1 without added OdhI
Sequence of 2-oxoglutarate dehydrogenase complex (ODH) (Q8NTE1 whole entry, one chain of several): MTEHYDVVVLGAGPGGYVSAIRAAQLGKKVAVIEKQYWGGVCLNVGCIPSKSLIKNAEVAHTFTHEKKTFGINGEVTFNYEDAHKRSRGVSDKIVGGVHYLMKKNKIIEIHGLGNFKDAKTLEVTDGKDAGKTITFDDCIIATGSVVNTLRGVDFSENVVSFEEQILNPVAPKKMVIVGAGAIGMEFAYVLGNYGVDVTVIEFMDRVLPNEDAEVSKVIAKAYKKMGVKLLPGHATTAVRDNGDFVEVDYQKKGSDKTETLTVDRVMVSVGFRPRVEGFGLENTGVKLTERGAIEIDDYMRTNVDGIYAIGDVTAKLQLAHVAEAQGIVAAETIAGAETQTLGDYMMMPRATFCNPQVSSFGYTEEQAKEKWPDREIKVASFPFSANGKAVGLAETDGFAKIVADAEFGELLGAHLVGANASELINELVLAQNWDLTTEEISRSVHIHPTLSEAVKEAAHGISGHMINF
Sequence of 2-oxoglutarate dehydrogenase complex (ODH) (Q8NNJ2 whole entry, one chain of several, further chain): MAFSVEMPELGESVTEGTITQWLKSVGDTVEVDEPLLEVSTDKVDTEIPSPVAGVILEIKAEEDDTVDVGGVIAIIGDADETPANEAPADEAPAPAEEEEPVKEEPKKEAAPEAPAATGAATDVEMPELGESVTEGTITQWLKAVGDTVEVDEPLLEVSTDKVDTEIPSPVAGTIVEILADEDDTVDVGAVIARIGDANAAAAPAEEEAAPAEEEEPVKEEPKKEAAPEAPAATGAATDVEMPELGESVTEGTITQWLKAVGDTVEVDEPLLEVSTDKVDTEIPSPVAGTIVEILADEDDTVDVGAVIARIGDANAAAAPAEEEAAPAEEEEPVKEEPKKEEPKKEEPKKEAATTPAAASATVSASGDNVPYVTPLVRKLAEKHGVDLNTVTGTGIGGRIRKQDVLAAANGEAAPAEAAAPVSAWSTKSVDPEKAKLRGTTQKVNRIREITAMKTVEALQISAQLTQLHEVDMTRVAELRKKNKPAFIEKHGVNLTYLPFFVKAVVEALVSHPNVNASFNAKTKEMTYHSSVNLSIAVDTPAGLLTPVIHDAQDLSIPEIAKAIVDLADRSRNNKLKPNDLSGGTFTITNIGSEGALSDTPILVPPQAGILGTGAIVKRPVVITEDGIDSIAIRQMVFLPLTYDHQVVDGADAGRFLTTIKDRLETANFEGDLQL
Description: Determination of the ODH activity in the presence of different OdhI variants was carried out using a photometric assay following NADH formation as described previously ([6], [8]).

Sequence of His10-GlnHΔSP (GlnH) (Q8NM30 entry or part of it, stated change not applied): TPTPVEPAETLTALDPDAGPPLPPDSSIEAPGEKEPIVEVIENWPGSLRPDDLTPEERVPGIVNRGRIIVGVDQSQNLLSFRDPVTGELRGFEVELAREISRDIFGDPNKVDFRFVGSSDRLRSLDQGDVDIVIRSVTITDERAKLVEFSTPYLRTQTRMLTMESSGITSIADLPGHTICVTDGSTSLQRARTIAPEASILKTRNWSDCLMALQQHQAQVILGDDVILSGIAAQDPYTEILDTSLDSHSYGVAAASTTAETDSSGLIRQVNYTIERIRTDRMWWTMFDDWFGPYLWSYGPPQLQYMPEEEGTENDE
Sequence of His10-GlnHcore (GlnH) (Q8NM30 entry or part of it): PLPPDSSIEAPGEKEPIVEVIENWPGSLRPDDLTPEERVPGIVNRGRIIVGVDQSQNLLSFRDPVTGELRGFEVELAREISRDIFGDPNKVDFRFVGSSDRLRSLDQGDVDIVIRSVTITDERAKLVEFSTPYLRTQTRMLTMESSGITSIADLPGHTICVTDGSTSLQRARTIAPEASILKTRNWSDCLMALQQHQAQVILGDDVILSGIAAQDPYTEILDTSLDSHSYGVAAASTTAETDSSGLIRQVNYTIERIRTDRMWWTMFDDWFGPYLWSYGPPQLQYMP

O=C(O)CCC(=O)C(=O)O [2-oxoglutarate]
binding to His10-GlnHΔSP (His10-GlnHΔSP (GlnH)): no interaction

CC[C@@H](CO)NCCN[C@@H](CC)CO [Ethambutol]
effect on glutamate secretion (C. glutamicum): trigger glutamate secretion

NC(=O)C[C@H](N)C(=O)O [L-asparagine]
binding to His10-GlnHΔSP (His10-GlnHΔSP (GlnH)): no interaction

N[C@@H](CC(=O)O)C(=O)O [L-aspartate]
Kd (His10-GlnHΔSP (GlnH)): 264 ± 14.6 µM
mean observed enthalpy change (His10-GlnHΔSP (GlnH)): -18.5 ± 4.3 kJ/mol
Kd (GlnH of C. glutamicum [1]): 0.55 ± 0.09 mM
Kd (His10-GlnHcore (GlnH)): 242 µM
Kd (M. tuberculosis GlnH): 4.8 ± 0.6 µM
effect on thermal stability of GlnH (GlnH of C. glutamicum [2]): increased the thermal stability

N[C@@H](CCC(=O)O)C(=O)O [L-glutamate]
Kd (His10-GlnHΔSP (GlnH)): 1260 µM
mean observed enthalpy change (His10-GlnHΔSP (GlnH)): -17.5 ± 5.0 kJ/mol
Kd (GlnH of C. glutamicum [1]): 2.06 mM
Kd (His10-GlnHcore (GlnH)): 1460 µM
Kd (M. tuberculosis GlnH): 15.2 ± 5.7 µM
effect on thermal stability of GlnH (GlnH of C. glutamicum [2]): increased the thermal stability

NC(=O)CC[C@H](N)C(=O)O [L-glutamine]
binding to His10-GlnHΔSP (His10-GlnHΔSP (GlnH)): no binding

B1: OdhI (natural protein)
chain: MSDNNGTPEPQVETTSVFRADLLKEMESSTGTAPASTGAENLPAGSALLVVKRGPNAGARFLLDQPTTTAGRHPESDIFLDDVTVSRRHAEFRINEGEFEVVDVGSLNGTYVNREPRNAQVMQTGDEIQIGKFRLVFLAGPAE
residual ODH activity of cell-free extracts of C. glutamicum ΔodhI after adding 0.38 nM or 1.9 nM purified OdhI (activity without OdhI = 100%) [3]: 3%

B2: OdhI-R87A (natural protein)
chain: MSDNNGTPEPQVETTSVFRADLLKEMESSTGTAPASTGAENLPAGSALLVVKRGPNAGARFLLDQPTTTAGRHPESDIFLDDVTVSARHAEFRINEGEFEVVDVGSLNGTYVNREPRNAQVMQTGDEIQIGKFRLVFLAGPAE
residual ODH activity of cell-free extracts of C. glutamicum ΔodhI after adding 0.38 nM or 1.9 nM purified OdhI-R87A (activity without OdhI = 100%) [3]: > 50%
relative specific ODH activity (residual activity) ([4]; 0.38 nM protein added): 68.9%

B3: OdhI-R87P (natural protein)
chain: MSDNNGTPEPQVETTSVFRADLLKEMESSTGTAPASTGAENLPAGSALLVVKRGPNAGARFLLDQPTTTAGRHPESDIFLDDVTVSPRHAEFRINEGEFEVVDVGSLNGTYVNREPRNAQVMQTGDEIQIGKFRLVFLAGPAE
residual ODH activity of cell-free extracts of C. glutamicum ΔodhI after adding 0.38 nM or 1.9 nM purified OdhI-R87P (activity without OdhI = 100%) [3]: > 50%
relative specific ODH activity (residual activity) ([4]; 0.38 nM protein added): 83.1%

B4: OdhI: 15-kDa forkhead-associated (FHA) domain-containing protein of C. glutamicum that inhibits ODH; purified, untagged (protein)
chain: MSDNNGTPEPQVETTSVFRADLLKEMESSTGTAPASTGAENLPAGSALLVVKRGPNAGARFLLDQPTTTAGRHPESDIFLDDVTVSRRHAEFRINEGEFEVVDVGSLNGTYVNREPRNAQVMQTGDEIQIGKFRLVFLAGPAE
modifications: left off: His10, N-terminal, cleaved
relative specific ODH activity (residual activity) ([4]; 0.38 nM protein added): 18.6%
relative specific ODH activity (residual activity) ([4]; 1.9 nM protein added): 3% and 3.1%
